The source of these data is US20090263410A1, “USE OF TGF-B1 INHIBITOR PEPTIDES IN THE PREPARATION OF AN IMMUNE RESPONSE MODULATING AGENT” (Proyecto De Biomedicina Cima, S.L., priority 2005, published 2009).

Assay [1] deals with dendritic cells derived from splenocytes. Put plainly: Surface markers of splenocyte-derived dendritic cells by flow cytometry. Type of assay: cell-based, C57 mouse. To be noted: incubation 72 hours; p144 50 μg/ml or anti (TGF-β) antibody 20 μg/ml; medium with GM-CSF+TGF-β1. As for the experimental part:
After sacrificing an 8-week old male C57 mouse, its spleen was extracted in sterile conditions and it was homogenised on a plate with clean medium to produce a cell suspension. The cells were centrifuged for 5 minutes at 1000 rpm and the cell sediment obtained was resuspended with 1 ml/spleen of ACK lysis solution (0.15M NH4Cl, 1 mM KHCO3, […] sodium salt-EDTA solution, pH 7.2-7.4) for 1 minute at 37° C. Next, the cells were centrifuged and washed with 10 ml of cold R10 medium (RPMI-1640, 10% FBS, Glutamine, 2×10^−5 M 2-Mercaptoethanol) to centrifuge and wash once more. Finally, the cells were resuspended in 50 ml of R10 medium. 6-well plates were prepared (Costar #3471) treating them with 1 ml per well of R10 medium to differentiate splenocytes from dendritic cells [R10+10 ng/ml of mouse GM-CSF (Peprotec, EC LTD, London, UK)+1 ng/ml of TGF-β1 (RD Systems, Minneapolis, USA)], for 15 minutes at room temperature. Next, 2 ml of the cell suspension were added to each well and they were incubated at 37° C. and 5% CO2. During the first weeks, the medium was changed twice, by the elimination of 1 ml of supernatant and the addition of 1 ml of fresh medium (R10+GM-CSF+TGF-β1) for dendritic cells. After these two weeks, the medium was separated. 1 ml per well of dissociation medium in enzyme-free BPS (GIBCO BRL) was added to the plates, and the medium was incubated at 37° C., then it was removed and 2 ml of tepid medium (R10+GM-CSF+TGF-β1) was added. Next, the cells were lifted with slow pipetting and the lifted cells were centrifuged at 1000 rpm and they were resuspended in fresh medium (R10+GM-CSF+TGF-β1). The cells thus obtained can be reamplified by seeding on a plate, repeating the initial process. […]

Assay [2] relates to CT26 cells. Put plainly: Subcutaneous CT26 tumour model after AH1 immunization. It counts as in vivo, BALB/c mice. To be noted: 50 μg AH1 day 0; 5×10^5 CT26 s.c. day 10; day 10-30 PS or 50 μg p144 every 48 hours i.p. As to the method:
Next, the effect of p144 was studied on a tumour progression model which was less aggressive than the intravenous administration of CT26. In this new model, mice were immunized with 50 μg of AH1 on day 0 and ten days later they were administered 5×10^5 CT26 cells by subcutaneous route. Furthermore, with the aim of testing the effect of blocking TGF-β1 on protection against CT26 tumour cells, another two groups of mice (groups 2 and 3) were treated on alternate days by intraperitoneal route between days 10-30 with 50 μg of p144.

Assay [3] concerns CT26 cells. Put plainly: Tumour growth of subcutaneous CT26 in AH1-immunized mice treated with peptides. Type of assay: in vivo, balb-c mice. As for the experimental part: GROUPS: 4 groups of 7 female balb-c mice, of 6 weeks old/group.
AH1+FIA s.c.+p144 (50 μg i.p./dose/mouse) AH1+FIA s.c.+p17(1-11) (50 μg i.p./dose/mouse) DESIGN: AH1+FIA: […]; Peptides: from day −6 on alternate days until day 10: Tumour model volume: Each 3 days from day 10 to day 41. Challenge on day 0 with CT26 (500000 cells/mouse s.c. in the flank).
REDUCTION IN THE MEAN TUMOUR VOLUME BY GROUPS TREATED WITH PEPTIDES: The effect of peptides p144 and p17(1-11)Am was studied in a tumour progression model. In this model, mice were immunized with 50 μg of AH1 10 days before the administration of 5×10^5 CT26 cells. In order to verify the effect of blocking the TGF-β1 on the protection against CT tumour cells, another two groups of mice were treated on alternate days by intraperitoneal route between days 6 and 10 (50 μg/mouse/48 h) with peptides p144 and p17(1-11)Am. […] This protection reached 100% of the animals in the case of p144 (FIG. 16).

Entries after “also recorded” stand apart in the source; their conditions may differ.

“p144: peptide inhibiting TGF-β1 whose amino acid sequence corresponds to SEQ ID NO: 1 (TSLDASIIWAMMQN; Synthetic Construct from human TGB-Beta1 type III receptor.Domain730-743)”: in assay [1], the “CD11c expression (fluorescence level)” value is reported as “negative effect”, the “CD80 expression (fluorescence level)” value is recorded as “negative effect” and the “MHC I expression (fluorescence level)” value is “negative effect”. The “Animals protected on day 50” value with CT26 cells [2] is 4/10. Also, in the assay on CT26 cells [3] (50 μg/mouse/48 h i.p. between days 6 and 10, s.c. CT26 on day 0, AH1 immunization 10 days before), the tumour growth result is reported as “protection against tumour growth; also recorded: delay tumour growth”. In addition, the “protection against tumour growth, share of animals” value with CT26 cells [3] (measured on day 42 after subcutaneous administration of tumour cells) came out at 100%.
